Values of other authors as cited in patent publication US11053255B2, “Synthesis of mahanine and related compounds” (Georgetown University, priority 2015, dated 2021).

How the values were obtained:
[1] = system: androgen-responsive, LNCaP prostate cancer cells; details: in vitro
[2] = system: androgen-independent, PC3 prostate cancer cells; details: in vitro
RASSF1A = details: human prostate cancer cells, dose-dependent
cyclin D1 = details: prostate cancer cells

CC(C)=CCC[C@]1(C)C=Cc2c(c(C)cc3c2[nH]c2cc(O)ccc23)O1 [mahanine, (R)-3,5-dimethyl-3-(4-methylpent-3-en-1-yl)-3,11-dihydropyrano[3,2-a]carbazol-9-ol]
growth inhibition [1]: inhibits growth
induction of apoptosis [1]: induces apoptosis
growth inhibition [2]: inhibits growth
induction of apoptosis [2]: induces apoptosis
expression of RASSF1A (RASSF1A): induces the expression of RASSF1A
cyclin D1 transcriptional activity (cyclin D1): represses cyclin D1 transcriptional activity
